# Calls of active or inactive are those of the source.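 Rule for the calls: active = maximal inhibition of the USP30 enzyme reaching 30% or more across the dose series; inactive = the rest.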
# Biological target: Ubiquitin carboxyl-terminal hydrolase 30 (Homo sapiens) (UniProt Q70CQ3)
# Test: ubiquitin-specific protease 30 DUB inhibitors, concentration-effect, biochemical, validation of primary actives (AID 1645865)
# Details: purified USP30, Ub-rhodamine cleavage, fluorescence, 2 h
# Chain of Ubiquitin carboxyl-terminal hydrolase 30 (Homo sapiens) (Q70CQ3 whole entry, looked up): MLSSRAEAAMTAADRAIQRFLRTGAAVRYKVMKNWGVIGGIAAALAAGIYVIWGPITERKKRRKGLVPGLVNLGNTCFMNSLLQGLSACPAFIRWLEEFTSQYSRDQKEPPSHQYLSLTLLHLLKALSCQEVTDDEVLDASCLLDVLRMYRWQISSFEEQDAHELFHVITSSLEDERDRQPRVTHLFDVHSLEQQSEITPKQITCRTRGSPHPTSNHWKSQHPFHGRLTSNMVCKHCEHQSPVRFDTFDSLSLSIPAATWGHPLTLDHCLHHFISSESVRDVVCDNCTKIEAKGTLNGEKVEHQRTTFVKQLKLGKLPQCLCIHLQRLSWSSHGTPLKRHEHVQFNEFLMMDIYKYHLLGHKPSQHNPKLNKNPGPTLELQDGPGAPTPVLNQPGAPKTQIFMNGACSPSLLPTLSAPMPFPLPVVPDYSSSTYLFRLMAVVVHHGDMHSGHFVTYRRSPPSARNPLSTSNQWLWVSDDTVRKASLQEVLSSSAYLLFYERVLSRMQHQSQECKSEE
row,Structure (SMILES),IC50
1,C=C1CCC2[C@](C)(CCC[C@]2(C)C(=O)OC)[C@H]1CCc1ccoc1/C=C/C(=O)O (some centres undefined),> 50 µM (inactive)
2,COc1cc(OC)cc(-c2nc(-c3cn(-c4cccc(F)c4)nn3)no2)c1,0.143 µM
3,CCOc1ccc(CC(=O)Nc2ccc(-c3cn4cccnc4n3)cc2)cc1,> 50 µM (inactive)
4,Cc1cc(C(=O)NC2(O)C(=O)c3ccccc3C2=O)n(C)n1,20.5 µM
5,COc1ccc(S(=O)(=O)N2CCC3(CC2)OC(=O)Nc2ccccc23)cc1,37.1 µM
6,CC(=O)c1cc2c(=O)c3c(C(=O)O)c(O)c(O)cc3oc2c(C(C)=O)c1-c1coc2cc(O)c(O)c(C(=O)O)c2c1=O,4.57 µM
7,Cc1cccc(NC(=O)CN2C(=O)COc3cc(S(=O)(=O)N4CCCC4)ccc32)c1C,21.4 µM
8,Cc1ccc(C)c(NS(=O)(=O)c2cc(-c3cnc(C4CC4)o3)ccc2C)c1,> 50 µM (inactive)
9,CCOc1cc(N2CCOCC2)c(OCC)cc1NC(=O)c1cc(-c2ccncc2)nc2ccccc12,3.68 µM
10,CC(=O)c1ccc(NC(=O)C2CCN(c3cncnc3N3CCCC3)CC2)cc1,> 50 µM (inactive)
11,Cc1ccc(N=Cc2sc(O)c3ccccc23)c(C)c1,> 50 µM (inactive)
12,O=C(NCCc1ccccc1)c1nnn(Cc2cccc(Cl)c2)c1-n1cccc1,> 50 µM (inactive)
13,CC1=C2C(=NCCN1)C(=O)N(c1ccccc1)C2c1cccnc1 (centres undefined),> 50 µM (inactive)
14,O=C(CNc1nc(Nc2ccccc2F)nc(Nc2ccccc2F)n1)Nc1ccccc1,33.4 µM
15,COc1ccc(NCc2nc3ccccc3n2Cc2ccccc2)cc1,> 50 µM (inactive)
16,O=C(Cn1cnc2ccccc21)Nc1ccc2c(c1)CCC2,42.6 µM
17,O=C(COC(=O)c1cc(Cl)c2c(c1)OCO2)Nc1ccc2[nH]c(=O)[nH]c2c1,> 50 µM (inactive)
18,Cc1ccc(NC(=O)Cn2c(-n3nc(C)cc3C)nc3c(c2=O)CCCC3)c(C)c1,25.6 µM
19,COc1ccc(NC(=O)c2sc(N3CCOCC3)nc2-c2ccccc2)c(OC)c1,18.9 µM
20,Cc1c(CC(=O)N2CCN(c3ncccn3)CC2)c(=O)oc2cc(O)ccc12,26.3 µM
21,O=C(COC(=O)c1ccc2[nH]c3c(c2c1)CCCC3)Nc1ccc2c(c1)OCO2,37.7 µM
22,COc1ccc(C(C(=O)NC2CCCCC2)N(C(=O)CCCC(=O)Nc2ccccn2)c2ccccc2C)cc1 (centres undefined),19.3 µM
23,Cc1cccc(S(=O)(=O)N2CCc3nc4ccccc4n3CC2)c1,23.4 µM
24,Cc1ccc(/C=C/C(=O)Nc2ccc3c(c2)OCCO3)cc1,> 50 µM (inactive)
25,COc1cccc(NC(=O)Nc2nccn(-c3ccc(F)cc3)c2=O)c1,21.2 µM

row,Structure (SMILES),IC50
1,O=C(Cn1c(CSc2ccccc2)nc2ccccc21)Nc1ccccc1F,> 50 µM (inactive)
2,COc1cc([C@@H]2c3cc4c(cc3C[C@@H]3COC(=O)[C@H]32)OCO4)cc(OC)c1OC,18.7 µM
3,Cn1ncc2c(=O)n(Cc3cccc(Cl)c3)cnc21,> 50 µM (inactive)
4,O=C(NC1CCN(c2nc(-c3cccnc3)nc3ccccc23)CC1)c1cccnc1,> 50 µM (inactive)
5,COc1cc(C#N)c(NC(=NCc2ccc(F)cc2)SC)cc1OC,20.5 µM
6,COc1ccc(CCn2cnc3c4ccccc4n(C)c3c2=O)cc1OC,> 50 µM (inactive)
7,Cc1cccc(NC(=O)CSc2ncnc3c2sc2nc(CC(C)C)c4c(c23)CCC4)c1,19.6 µM
8,Oc1ccc(-c2nc3cnccn3c2NCCc2ccccc2)c(O)c1,> 50 µM (inactive)
9,O=[N+]([O-])c1cccc(CSc2nnc(/C=C/c3ccccc3)o2)c1,> 50 µM (inactive)
10,Cc1ccc(OCCn2c(=N)n(C(C)C)c3ccccc32)cc1,35.3 µM
11,O=C1C=CC(O)C2C1CC13SSC4(CC5C(=O)C=CC(O)C5N4C1=O)C(=O)N23 (centres undefined),1 µM
12,COc1ccc(CNC(=O)C(C)n2nc(-c3ccco3)c(-c3cc(C)no3)cc2=O)cc1 (centres undefined),> 50 µM (inactive)
13,CC1CCCCN1c1nc(F)c2c(c1F)S(=O)(=O)CCN2Cc1ccccc1 (centres undefined),> 50 µM (inactive)
14,O=c1c2cnc(N3CCCCC3)nc2ccn1CCc1ccccc1,2.44 µM
15,CCOC(=O)c1cc2c(ccn2C)n1Cc1cccc2ccccc12,> 50 µM (inactive)
16,COc1ccccc1OCCNC(=O)c1cc(C2CC2)nc2c1cnn2C(C)C,> 50 µM (inactive)
17,Cc1nc(-c2ccccn2)sc1C(=O)Nc1ccc(C#N)cc1,> 50 µM (inactive)
18,COc1cccc2c1C(=O)c1ccc3c(c1C2=O)C(=O)CC(C)(O)C3 (centres undefined),> 50 µM (inactive)
19,O=c1c2cnc3nc(-c4cccnc4)nn3c2ccn1CCc1ccccc1,> 50 µM (inactive)
20,CCn1c(CNc2ccc(Cl)cc2)nnc1SCC(=O)Nc1ccccc1,> 50 µM (inactive)
21,CCOc1ccc(NS(=O)(=O)c2ccc(NC(=O)Nc3ccccc3)cc2)cc1,17.3 µM
22,O=C(Cn1cc(C(=O)C(F)(F)F)c2ccccc21)N1CCc2ccccc21,2.4 µM
23,CC(=O)Nc1cccc(NC(=O)COc2cccc3ccc(N4CCCC4)nc23)c1,> 50 µM (inactive)
24,CCOc1ccc(S(=O)(=O)Nc2ccc[nH]c2=O)cc1,> 50 µM (inactive)
